Experimental findings from ChEMBL document CHEMBL4732171 (J Med Chem, 2021) are described below.

Activity calls are given as the source filed them. The rule behind the calls is not given here. A value given as a limit tells only on which side of the number the result lay.

For one assay, the target named is Carbonic anhydrase 3 (Homo sapiens, UniProt P07451).
Assay [1] deals with Carbonic anhydrase 2 (Homo sapiens) (UniProt P00918). Briefly: Binding affinity to human full length CAH2 expressed in Escherichia coli BL21 (DE3) assessed as binding concentration causing thermal stabilization by Sypro-Orange dye based DSF assay.
Assay [2] has as its target Carbonic anhydrase 9 (Homo sapiens) (UniProt Q16790). Conditions: T47D, dose 50.0 nM.
Assay [3] has the same target. The conditions noted are these: UFH-001, dose 50.0 nM.

Chain of Carbonic anhydrase 3 (P07451 whole entry): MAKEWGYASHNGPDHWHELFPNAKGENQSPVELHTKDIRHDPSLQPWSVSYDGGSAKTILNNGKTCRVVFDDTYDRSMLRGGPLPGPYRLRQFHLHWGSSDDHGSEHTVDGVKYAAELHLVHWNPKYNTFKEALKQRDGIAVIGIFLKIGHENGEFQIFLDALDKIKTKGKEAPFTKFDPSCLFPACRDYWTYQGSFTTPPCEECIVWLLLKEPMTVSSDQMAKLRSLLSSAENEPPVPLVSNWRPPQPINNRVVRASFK

For the compound `NS(=O)(=O)c1ccc(N2CCN(c3ccc(F)cc3F)C2=O)cc1`, the Ki at Carbonic anhydrase 3 is greater than 10 µM. Also, the Activity in assay [1] was found to be 0.1 mM.
For `CCOc1ccc2nc(S(N)(=O)=O)sc2c1`, the inhibition entry in assay [2] and in assay [3] was “Active” in each case.

In general, Ki refers to the equilibrium dissociation constant of an inhibitor or competing ligand from its target.
